Experimental data from patent US20250387354A1 (SpringWorks Therapeutics, Inc., priority 2024, published 2025).

System: NF1-associated plexiform neurofibromas (PNs)
Assay: Phase 2b trial of mirdametinib: confirmed objective response by BICR volumetric MRI per REiNS criteria
Format: in vivo, human
Procedure: Study treatment was administered orally at a twice daily (BID) dose specified in the table below. Dosing was on a 28-day Cycle (4-week course) with a 3 week on/1 week off schedule. The treatment period will last for up to 24 Cycles followed by a 30-day Safety Follow-Up period.
A partial response was defined as PN decrease ≥20% compared to baseline using centrally read MRI volumetric analysis.
The major efficacy outcome measure was confirmed objective response rate (ORR), defined as the percentage of patients with complete response (disappearance of the target PN) or confirmed partial response ([…]). Responses were assessed by blinded independent central review (BICR) using volumetric magnetic resonance imaging (MRI) analysis per Response Evaluation in Neurofibromatosis and Schwannomatosis (REINS) criteria. A secondary efficacy objective was to determine the duration of response for patients who achieved a confirmed objective response.

## O=C(NOC[C@H](O)CO)c1ccc(F)c(F)c1Nc1ccc(I)cc1F (single isomer, unassigned) [mirdametinib]
adults
  ORR also considering confirmed objective responses after cycle 24: 45%
Pediatric patients
  ORR also considering confirmed objective responses after cycle 24: 54%
